Source: patent publication US20240317777A1, “NOVEL MACROCYCLIC AMINOPYRAZOLE COMPOUNDS AS CDK2 INHIBITORS” (Accutar Biotechnology Inc., priority 2023, published 2024)
Like-named read-outs stand apart in the source and are kept apart here. Each block holds one compound with its values, some of them ahead of it.

What was measured:
CDK1-CYCLIN B = CDK1-CYCLIN B (Homo sapiens, UniProt P06493); test: CDK protein kinase inhibition by ADP-Glo assay, CDK1-CYCLIN B; format: biochemical; details: for IC50: read-out: CDK1-CYCLINB, IC50; for CDK2 Fold selectivity against CDK1: fold selectivity for CDK2 over CDK1, recombinant CDK kinases
CDK1-CYCLIN B, sequence (P06493 whole entry): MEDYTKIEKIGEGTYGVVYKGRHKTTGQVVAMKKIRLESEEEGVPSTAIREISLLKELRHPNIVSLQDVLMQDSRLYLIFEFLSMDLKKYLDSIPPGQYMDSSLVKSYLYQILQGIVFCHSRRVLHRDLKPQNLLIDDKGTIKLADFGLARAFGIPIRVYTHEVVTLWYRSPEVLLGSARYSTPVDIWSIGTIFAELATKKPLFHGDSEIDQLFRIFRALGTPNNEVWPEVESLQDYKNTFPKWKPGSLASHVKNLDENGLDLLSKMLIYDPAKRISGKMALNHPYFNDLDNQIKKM
CDK1-CYCLIN B, sequence (P14635 whole entry partner): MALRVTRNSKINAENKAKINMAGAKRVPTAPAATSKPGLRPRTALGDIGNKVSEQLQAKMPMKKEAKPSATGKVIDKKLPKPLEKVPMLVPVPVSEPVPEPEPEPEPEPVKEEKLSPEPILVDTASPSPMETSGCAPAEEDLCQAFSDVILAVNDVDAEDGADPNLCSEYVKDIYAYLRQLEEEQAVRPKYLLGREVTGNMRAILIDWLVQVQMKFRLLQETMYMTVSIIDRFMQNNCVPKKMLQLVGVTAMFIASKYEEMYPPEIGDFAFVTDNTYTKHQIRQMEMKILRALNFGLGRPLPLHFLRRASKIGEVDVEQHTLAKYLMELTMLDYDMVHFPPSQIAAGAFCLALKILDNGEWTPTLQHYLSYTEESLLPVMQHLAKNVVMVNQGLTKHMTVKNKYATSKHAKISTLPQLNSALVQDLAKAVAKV
Procedure, shortened: (§1)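 Human CDK/cyclin complexes with peptide substrate, 1000 μM ATP, 5 mM MgCl2 in 100 mM HEPES pH 7.5, 0.1% BSA, 0.01% Triton X-100, 1 mM DTT, 1% DMSO, incubated at 22° C. ADP formed was detected by ADP-Glo luminescence after quench.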

CDK2-CYCLIN E1 = CDK2-CYCLIN E1 (Homo sapiens, UniProt P24941); test: CDK protein kinase inhibition by ADP-Glo assay, CDK2-CYCLIN E1; format: biochemical; details: read-out: CDK2-CYCLINE, IC50
Procedure, shortened: as §1

CDK4-CYCLIN D1 = CDK4-CYCLIN D1 (Homo sapiens, UniProt P11802); test: CDK protein kinase inhibition by ADP-Glo assay, CDK4-CYCLIN D1; format: biochemical; details: for IC50: read-out: CDK4-CYCLIND1, IC50; for CDK2 Fold selectivity against CDK4: fold selectivity for CDK2 over CDK4, recombinant CDK kinases
CDK4-CYCLIN D1, sequence (P11802 whole entry): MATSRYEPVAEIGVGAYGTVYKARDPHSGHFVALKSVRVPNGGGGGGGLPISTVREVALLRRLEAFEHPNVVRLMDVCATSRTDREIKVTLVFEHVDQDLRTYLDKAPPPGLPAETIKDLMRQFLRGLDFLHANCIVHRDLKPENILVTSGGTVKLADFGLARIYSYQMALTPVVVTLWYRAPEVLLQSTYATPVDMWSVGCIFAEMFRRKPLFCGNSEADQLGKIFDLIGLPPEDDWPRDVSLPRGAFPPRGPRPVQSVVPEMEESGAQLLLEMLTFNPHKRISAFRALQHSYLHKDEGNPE
CDK4-CYCLIN D1, sequence (P24385 whole entry partner): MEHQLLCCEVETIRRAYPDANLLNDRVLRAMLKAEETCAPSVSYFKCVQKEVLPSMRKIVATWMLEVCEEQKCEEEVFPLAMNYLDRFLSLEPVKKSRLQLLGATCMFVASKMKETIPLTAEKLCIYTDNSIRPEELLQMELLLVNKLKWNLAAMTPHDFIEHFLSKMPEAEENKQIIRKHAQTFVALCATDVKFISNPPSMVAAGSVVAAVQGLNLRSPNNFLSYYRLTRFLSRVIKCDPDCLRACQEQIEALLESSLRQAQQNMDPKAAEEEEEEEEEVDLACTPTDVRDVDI
Procedure, shortened: as §1

CDK6-CYCLIN D3 = CDK6-CYCLIN D3 (Homo sapiens, UniProt Q00534); test: CDK protein kinase inhibition by ADP-Glo assay, CDK6-CYCLIN D3; format: biochemical; details: for IC50: read-out: CDK6-CYCLIND3, IC50; for CDK2 Fold selectivity against CDK6: fold selectivity for CDK2 over CDK6, recombinant CDK kinases
CDK6-CYCLIN D3, sequence (Q00534 whole entry): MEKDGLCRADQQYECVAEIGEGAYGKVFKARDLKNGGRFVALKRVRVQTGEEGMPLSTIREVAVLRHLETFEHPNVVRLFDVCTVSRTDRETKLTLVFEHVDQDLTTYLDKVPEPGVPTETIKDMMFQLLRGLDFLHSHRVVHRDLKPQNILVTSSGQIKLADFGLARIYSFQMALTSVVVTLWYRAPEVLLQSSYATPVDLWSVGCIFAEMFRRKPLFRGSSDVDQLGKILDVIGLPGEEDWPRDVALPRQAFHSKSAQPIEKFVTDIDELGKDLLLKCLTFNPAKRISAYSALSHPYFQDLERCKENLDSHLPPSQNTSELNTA
CDK6-CYCLIN D3, sequence (P30281 whole entry partner): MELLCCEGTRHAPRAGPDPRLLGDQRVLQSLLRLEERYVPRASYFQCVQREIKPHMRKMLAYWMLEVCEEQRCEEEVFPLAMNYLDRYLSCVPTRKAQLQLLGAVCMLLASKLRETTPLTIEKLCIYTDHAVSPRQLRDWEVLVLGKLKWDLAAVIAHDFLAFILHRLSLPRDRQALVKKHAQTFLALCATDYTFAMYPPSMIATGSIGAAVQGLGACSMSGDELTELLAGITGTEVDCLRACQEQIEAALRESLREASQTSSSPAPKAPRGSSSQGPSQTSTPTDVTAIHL
Procedure, shortened: as §1

CDK9-CYCLIN T1 = CDK9-CYCLIN T1 (Homo sapiens, UniProt P50750); test: CDK protein kinase inhibition by ADP-Glo assay, CDK9-CYCLIN T1; format: biochemical; details: for IC50: read-out: CDK9-CYCLINT1, IC50; for CDK2 Fold selectivity against CDK9: fold selectivity for CDK2 over CDK9, recombinant CDK kinases
CDK9-CYCLIN T1, sequence (P50750 whole entry): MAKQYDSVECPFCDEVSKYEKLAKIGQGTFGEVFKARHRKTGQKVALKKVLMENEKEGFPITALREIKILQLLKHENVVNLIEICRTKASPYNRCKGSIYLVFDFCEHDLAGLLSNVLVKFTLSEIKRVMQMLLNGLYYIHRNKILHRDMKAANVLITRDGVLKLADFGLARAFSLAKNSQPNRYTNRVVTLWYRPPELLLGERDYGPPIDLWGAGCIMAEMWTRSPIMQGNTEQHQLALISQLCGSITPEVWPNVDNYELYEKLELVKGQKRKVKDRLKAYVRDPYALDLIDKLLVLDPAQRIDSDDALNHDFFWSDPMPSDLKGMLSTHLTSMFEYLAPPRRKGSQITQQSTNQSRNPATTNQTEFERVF
CDK9-CYCLIN T1, sequence (O60563 whole entry partner): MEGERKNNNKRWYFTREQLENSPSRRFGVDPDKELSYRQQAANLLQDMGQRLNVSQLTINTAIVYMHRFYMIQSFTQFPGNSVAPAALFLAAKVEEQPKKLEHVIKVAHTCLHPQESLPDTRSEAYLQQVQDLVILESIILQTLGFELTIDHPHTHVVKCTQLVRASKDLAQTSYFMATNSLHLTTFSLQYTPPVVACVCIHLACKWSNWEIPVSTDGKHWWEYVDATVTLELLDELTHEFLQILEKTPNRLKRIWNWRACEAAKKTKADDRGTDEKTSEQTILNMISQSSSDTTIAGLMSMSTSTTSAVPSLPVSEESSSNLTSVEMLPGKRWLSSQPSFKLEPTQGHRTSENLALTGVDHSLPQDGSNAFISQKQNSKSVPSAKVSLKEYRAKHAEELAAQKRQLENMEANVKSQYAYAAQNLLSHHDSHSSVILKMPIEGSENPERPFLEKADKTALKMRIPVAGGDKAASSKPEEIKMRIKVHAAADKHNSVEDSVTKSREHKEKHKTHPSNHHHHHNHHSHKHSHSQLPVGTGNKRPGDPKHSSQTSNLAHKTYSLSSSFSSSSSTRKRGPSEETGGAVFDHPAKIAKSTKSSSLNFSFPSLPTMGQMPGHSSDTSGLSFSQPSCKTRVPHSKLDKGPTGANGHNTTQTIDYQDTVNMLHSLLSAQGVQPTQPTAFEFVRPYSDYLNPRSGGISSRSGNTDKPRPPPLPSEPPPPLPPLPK
Procedure, shortened: as §1

[1] = tested on: Phospho-Rb (Ser807/811) in OVCAR3 cells; test: Phospho-Rb expression inhibition in OVCAR3 cells quantified by In Cell Western; format: cell-based; details: Homo sapiens, OVCAR-3, 24 hours, read-out: OVCAR-3 pRb IC50
Procedure, shortened: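 In-cell western: after 24 h compound exposure at 37° C, fixed OVCAR3 cells co-stained for pRb Ser807/811 (800 nm channel) and total Rb (680 nm channel), imaged by LI-COR Odyssey.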

[2] = tested on: CCNE1-amplified OVCAR3 cells; test: Cell growth inhibition of CCNE1-amplified OVCAR3 cells (CellTiter-Glo); format: cell-based; details: Homo sapiens, OVCAR-3, 144 h, 6 days
Procedure, shortened: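 Growth read-out was CellTiter-Glo luminescence, taken after 10 min at room temperature at the end of a 6-day compound exposure at 37 °C. Compounds were diluted from DMSO stocks across various concentrations.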

CCNE1-normal SKOV3 cells = test: Cell growth inhibition of CCNE1-normal SKOV3 cells (CellTiter-Glo); format: cell-based; details: Homo sapiens, SK-OV-3, 144 h, 6 days
Procedure, shortened: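 Growth was measured by CellTiter-Glo luminescence after 6 days' compound exposure at 37 °C. Cells were plated one day before dosing at 1000 per well in medium with 10% FBS, and compounds were diluted from DMSO stocks.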

[3] = Table 35, recombinant CDK kinase

IC50 (CDK1-CYCLIN B; ADP-Glo, 1000 μM ATP, Table 33): > 0.5 µM
CDK2 Fold selectivity against CDK1 (CDK1-CYCLIN B; Table 34): D (D, >20 and ≤50)
IC50 (CDK2-CYCLIN E1; ADP-Glo, 1000 μM ATP, Table 33): 0.01 to 0.05 µM
IC50 (CDK4-CYCLIN D1; ADP-Glo, 1000 μM ATP, Table 33): > 0.5 µM
CDK2 Fold selectivity against CDK4 (CDK4-CYCLIN D1; Table 34): C (C, >50 and ≤100)
IC50 (CDK6-CYCLIN D3; ADP-Glo, 1000 μM ATP, Table 33): > 0.5 µM
CDK2 Fold selectivity against CDK6 (CDK6-CYCLIN D3; Table 34): C (C, >50 and ≤100)
IC50 (CDK9-CYCLIN T1; ADP-Glo, 1000 μM ATP, Table 33): > 0.5 µM
CDK2 Fold selectivity against CDK9 (CDK9-CYCLIN T1; Table 34): B (B, >100 and ≤500)
IC50 [1]: 0.01 to 0.05 µM
IC50 [2]: 0.05 to 0.25 µM
Compound: C[C@H]1CCCOc2cc(ccn2)Nc2[nH]nc(c2F)[C@H]2CC[C@H](C2)OC(=O)N1 [Compound 183, (1^1S,1^3R,9S,E)-2^4-fluoro-9-methyl-2^1H-5,12-dioxa-3,10-diaza-4(4,2)-pyridina-2(3,5)-pyrazola-1(1,3)-cyclopentanacyclododecaphan-11-one]
IC50 (CCNE1-normal SKOV3 cells): > 1.25 µM

IC50 (CDK1-CYCLIN B; ADP-Glo, 1000 μM ATP, Table 21): 0.1 to 0.5 µM
IC50 (CDK2-CYCLIN E1; ADP-Glo, 1000 μM ATP, Table 21): ≤ 0.01 µM
IC50 (CDK4-CYCLIN D1; ADP-Glo, 1000 μM ATP, Table 21): > 0.5 µM
IC50 (CDK6-CYCLIN D3; ADP-Glo, 1000 μM ATP, Table 21): 0.1 to 0.5 µM
IC50 (CDK9-CYCLIN T1; ADP-Glo, 1000 μM ATP, Table 21): > 0.5 µM
IC50 [1]: 0.01 to 0.05 µM
IC50 [2]: 0.01 to 0.05 µM
Compound: C[C@@H]1Oc2cc(ccn2)Nc2cc(n[nH]2)[C@H]2CC[C@H](C2)OC(=O)N[C@H]2C[C@H]1C2 [compound 146]
IC50 (CCNE1-normal SKOV3 cells): 0.25 to 1.25 µM

IC50 (CDK1-CYCLIN B; ADP-Glo, 1000 μM ATP, Table 23): 0.1 to 0.5 µM
IC50 (CDK2-CYCLIN E1; ADP-Glo, 1000 μM ATP, Table 23): 0.01 to 0.05 µM
IC50 (CDK4-CYCLIN D1; ADP-Glo, 1000 μM ATP, Table 23): 0.1 to 0.5 µM
IC50 (CDK6-CYCLIN D3; ADP-Glo, 1000 μM ATP, Table 23): > 0.5 µM
IC50 (CDK9-CYCLIN T1; ADP-Glo, 1000 μM ATP, Table 23): > 0.5 µM
IC50 [1]: 0.01 to 0.05 µM
IC50 [2]: 0.01 to 0.05 µM
Compound: C[C@H]1CCO[C@H](C)c2cc(ccn2)Nc2cc(n[nH]2)[C@H]2CC[C@H](C2)OC(=O)N1 [compound 158]
IC50 (CCNE1-normal SKOV3 cells): 0.25 to 1.25 µM

IC50 (CDK1-CYCLIN B; ADP-Glo, 1000 μM ATP, Table 7): 0.01 to 0.05 µM
CDK2 fold selectivity over CDK1 (CDK1-CYCLIN B; CDK2 versus CDK1, Table 8): E (E, <20)
IC50 (CDK2-CYCLIN E1; ADP-Glo, 1000 μM ATP, Table 7): ≤ 0.01 µM
IC50 (CDK4-CYCLIN D1; ADP-Glo, 1000 μM ATP, Table 7): 0.05 to 0.1 µM
CDK2 Fold Sensitivity, CDK4 (CDK4-CYCLIN D1; CDK2 versus CDK4, Table 8): C (C, >50 and ≤100)
IC50 (CDK6-CYCLIN D3; ADP-Glo, 1000 μM ATP, Table 7): 0.05 to 0.1 µM
CDK2 Fold Sensitivity, CDK6 (CDK6-CYCLIN D3; CDK2 versus CDK6, Table 8): D (D, >20 and ≤50)
IC50 (CDK9-CYCLIN T1; ADP-Glo, 1000 μM ATP, Table 7): 0.05 to 0.1 µM
CDK2 Fold Sensitivity, CDK9 (CDK9-CYCLIN T1; CDK2 versus CDK9, Table 8): C (C, >50 and ≤100)
IC50 [1]: 0.002 to 0.01 µM
IC50 [2]: 0.002 to 0.01 µM
Compound: CC1(C)CCCOc2cc(ccn2)Nc2cc([nH]n2)[C@H]2CC[C@H](C2)OC(=O)N1 [Compound 13, (1^1S,1^3R,Z)-9,9-dimethyl-2^1H-5,12-dioxa-3,10-diaza-4(4,2)-pyridina-2(3,5)-pyrazola-1(1,3)-cyclopentanacyclododecaphan-11-one]
IC50 (CCNE1-normal SKOV3 cells): 0.25 to 1.25 µM

Compound: O=C1NC2CC3(C2)CC(C3)Oc2cc(ccn2)Nc2cc(n[nH]2)[C@H]2CC[C@H](C2)O1 [Compound 128, (6^1S,6^3R,Z)-5^1H-2,7-dioxa-4,9-diaza-3(2,4)-pyridina-5(5,3)-pyrazola-6(1,3)-cyclopentana-1,10(1,3)-dicyclobutanadecaphan-8-one]
IC50 (CDK1-CYCLIN B; ADP-Glo, 1000 μM ATP, Table 17): 0.01 to 0.05 µM
CDK2 Fold selectivity, CDK1 (CDK1-CYCLIN B; CDK2 versus CDK1, Table 18): E (E, <20)
IC50 (CDK2-CYCLIN E1; ADP-Glo, 1000 μM ATP, Table 17): ≤ 0.01 µM
IC50 (CDK4-CYCLIN D1; ADP-Glo, 1000 μM ATP, Table 17): 0.01 to 0.05 µM
CDK2 Fold selectivity, CDK4 (CDK4-CYCLIN D1; CDK2 versus CDK4, Table 18): D (D, >20 and ≤50)
IC50 (CDK6-CYCLIN D3; ADP-Glo, 1000 μM ATP, Table 17): 0.01 to 0.05 µM
CDK2 Fold selectivity, CDK6 (CDK6-CYCLIN D3; CDK2 versus CDK6, Table 18): E (E, <20)
IC50 (CDK9-CYCLIN T1; ADP-Glo, 1000 μM ATP, Table 17): 0.01 to 0.05 µM
CDK2 Fold selectivity, CDK9 (CDK9-CYCLIN T1; CDK2 versus CDK9, Table 18): E (E, <20)
IC50 [1]: 0.002 to 0.01 µM
IC50 [2]: 0.002 to 0.01 µM
IC50 (CCNE1-normal SKOV3 cells): 0.25 to 1.25 µM

IC50 (CDK1-CYCLIN B; ADP-Glo, 1000 μM ATP, Table 23): 0.05 to 0.1 µM
IC50 (CDK2-CYCLIN E1; ADP-Glo, 1000 μM ATP, Table 23): ≤ 0.01 µM
IC50 (CDK4-CYCLIN D1; ADP-Glo, 1000 μM ATP, Table 23): 0.1 to 0.5 µM
IC50 (CDK6-CYCLIN D3; ADP-Glo, 1000 μM ATP, Table 23): 0.1 to 0.5 µM
IC50 (CDK9-CYCLIN T1; ADP-Glo, 1000 μM ATP, Table 23): 0.1 to 0.5 µM
IC50 [1]: 0.01 to 0.05 µM
IC50 [2]: 0.01 to 0.05 µM
Compound: C[C@@H]1CC[C@H](C)Oc2cc(ccn2)Nc2cc(n[nH]2)[C@H]2CC[C@H](C2)OC(=O)N1 [compound 163]
IC50 (CCNE1-normal SKOV3 cells): 0.25 to 1.25 µM

IC50 (CDK1-CYCLIN B; [3]): 0.05 to 0.1 µM
CDK2 Fold selectivity against CDK1 (CDK1-CYCLIN B; Table 36): E (E, <20)
IC50 (CDK2-CYCLIN E1; [3]): ≤ 0.01 µM
IC50 (CDK4-CYCLIN D1; [3]): 0.1 to 0.5 µM
CDK2 Fold selectivity against CDK4 (CDK4-CYCLIN D1; Table 36): C (C, >50 and ≤100)
IC50 (CDK6-CYCLIN D3; [3]): 0.1 to 0.5 µM
CDK2 Fold selectivity against CDK6 (CDK6-CYCLIN D3; Table 36): C (C, >50 and ≤100)
IC50 (CDK9-CYCLIN T1; [3]): 0.1 to 0.5 µM
CDK2 Fold selectivity against CDK9 (CDK9-CYCLIN T1; Table 36): C (C, >50 and ≤100)
IC50 [1]: 0.002 to 0.01 µM
IC50 [2]: 0.01 to 0.05 µM
Compound: C[C@H]1CC(F)(F)COc2cc(ccn2)Nc2cc(n[nH]2)[C@H]2CC[C@H](C2)OC(=O)N1 [Compound 223, (1^1S,1^3R,9S,Z)-7,7-difluoro-9-methyl-2^1H-5,12-dioxa-3,10-diaza-4(4,2)-pyridina-2(3,5)-pyrazola-1(1,3)-cyclopentanacyclododecaphan-11-one]
IC50 (CCNE1-normal SKOV3 cells): 0.25 to 1.25 µM

IC50 (CDK1-CYCLIN B; ADP-Glo, 1000 μM ATP, Table 15): ≤ 0.01 µM
CDK2 Fold selectivity, CDK1 (CDK1-CYCLIN B; CDK2 versus CDK1, Table 16): E (E, <20)
IC50 (CDK2-CYCLIN E1; ADP-Glo, 1000 μM ATP, Table 15): ≤ 0.01 µM
IC50 (CDK4-CYCLIN D1; ADP-Glo, 1000 μM ATP, Table 15): 0.01 to 0.05 µM
CDK2 Fold selectivity, CDK4 (CDK4-CYCLIN D1; CDK2 versus CDK4, Table 16): E (E, <20)
IC50 (CDK6-CYCLIN D3; ADP-Glo, 1000 μM ATP, Table 15): 0.01 to 0.05 µM
CDK2 Fold selectivity, CDK6 (CDK6-CYCLIN D3; CDK2 versus CDK6, Table 16): E (E, <20)
IC50 (CDK9-CYCLIN T1; ADP-Glo, 1000 μM ATP, Table 15): ≤ 0.01 µM
CDK2 Fold selectivity, CDK9 (CDK9-CYCLIN T1; CDK2 versus CDK9, Table 16): E (E, <20)
IC50 [1]: ≤ 0.002 µM
IC50 [2]: ≤ 0.002 µM
Compound: O=C1NC23CC(C/C=C/c4cncc(c4)Nc4cc(n[nH]4)[C@H]4CC[C@H](C4)O1)(C2)C3 [Compound 106, (1^1S,1^3R,2^4Z,5E)-2^1H-11-oxa-3,9-diaza-4(3,5)-pyridina-2(3,5)-pyrazola-8(1,3)-bicyclo[1.1.1]pentana-1(1,3)-cyclopentanacycloundecaphan-5-en-10-one]
IC50 (CCNE1-normal SKOV3 cells): 0.01 to 0.05 µM
